Reference: patent US6562244B1, “Method and apparatus for disinfecting drainage” (Ebara Corporation, priority 1998, dated 2003)
Values after ≈ are worked out from the molar mass of the structure shown.

What was measured:
coliform organisms [1] = assay: Disinfection of wet-weather sewage by the system of FIGS. 1 to 3 (Example 3), coliform organism count; assay type: cell-based
Experimental: Examples of the present invention will now be described, but the invention is not restricted thereby. Drainage was treated by the system show in FIGS. 1 to 3. In all of RUN 1 to RUN 4, the amount of the disinfectant being 0 (zero) corresponds to the incoming water quality of wet-weather sewage which has flowed into rainwater removal facilities.

coliform organisms [2] = assay: Sterilization test of coliform organisms in treated sewage (Example 1); assay type: cell-based; conditions: for Coliform organism count: treated sewage (initial 12600 CFU/mL)
Experimental: Treated sewage containing coliform organisms, as water to be treated, was subjected to a sterilization test. As a disinfectant, each of 1-bromo-3-chloro-5,5-dimethylhydantoin (hereinafter referred to as BCDMH) (Example 1) and sodium hypochlorite (Comparative Example 1) was used. The sterilization test of coliform organisms was conducted, with the concentration of the disinfectant being varied.
In the present specification, the proportion of the disinfectant added is expressed as active chlorine for each of the bromine-based disinfectant and the chlorine-based disinfectant, and is expressed as “mg/L as Cl” calculated as the active chlorine concentration. For example, when 1 g of BCDMH is added to 1 liter of drainage, its concentration is 540 mg/L as Cl.

coliform organisms [3] = assay: Sterilization test of treated drainage from marine product processing (Example 2); assay type: cell-based; conditions: for Coliform organism count: marine product processing drainage (initial 320000 CFU/mL)
Experimental: Drainage from the marine product processing industry was subjected to coagulation, pressurization, floating, and separation. Then, the drainage was further treated by an activated sludge process. The resulting drainage was used as water to be treated. A sterilization test of this water to be treated was conducted, with the concentration of a disinfectant being varied. [table]

aquatic organisms = conditions: calculated as active chlorine (Cl2); aquatic organisms in public waters; cited from earlier work
[4] = disinfectant added 2.0 mg/L as Cl

Question: With `OCl` [Sodium hypochlorite, sodium hypochlorite, reference compound] as the molecule, how does the Coliform organism count (coliform organisms [1]; RUN 4, sewage 250 m^3/h (incoming 46 × 10^3), amount added 30 mg/l as chlorine (Cl2)) read?
Answer: 19 × 10^3 CFU/ml

Question: What about the Coliform organism count (coliform organisms [1]; RUN 4, sewage 250 m^3/h (incoming 46 × 10^3), amount added 60 mg/l as chlorine (Cl2)) of the same molecule?
Answer: > 3,000 CFU/ml

Question: What about the Coliform organism count (coliform organisms [1]; RUN 4, sewage 250 m^3/h (incoming 46 × 10^3), amount added 60 mg/l as chlorine (Cl2), listed as B) of the same molecule?
Answer: 41 × 10^2 CFU/ml

Question: What about the Coliform organism count (coliform organisms [2]; [4]) of the same molecule?
Answer: 11800 CFU/mL

Question: What about the Coliform organism count (coliform organisms [2]; disinfectant added 2.5 mg/L as Cl) of the same molecule?
Answer: 2800 CFU/mL

Question: And the Coliform organism count (coliform organisms [2]; disinfectant added 3.0 mg/L as Cl)?
Answer: 300 CFU/mL

Question: What about the Coliform organism count (coliform organisms [2]; disinfectant added 3.5 mg/L as Cl) of the same molecule?
Answer: Not detected

Question: And the “reaction time to show sufficient effect” value (coliform organisms [2]; treated sewage, Example 1)?
Answer: more than 5 minute

Question: And the Coliform organism count (coliform organisms [3]; disinfectant added 6 mg/L as C1)?
Answer: 135000 CFU/mL

Question: And the Coliform organism count (coliform organisms [3]; disinfectant added 8 mg/L as C1)?
Answer: 1900 CFU/mL

Question: And the Coliform organism count (coliform organisms [3]; disinfectant added 10 mg/L as C1)?
Answer: 900 CFU/mL

Question: What about the Coliform organism count (coliform organisms [3]; disinfectant added 12 mg/L as C1) of the same molecule?
Answer: Not detected

Question: Which results are given for `CC1(C)C(=O)N(Cl)C(=O)N1Br` [BCDMH, 1-bromo-3-chloro-5,5-dimethylhydantoin]?
Answer: Coliform organism count (coliform organisms [1]; RUN 1, sewage 120 m^3/h (incoming 97 × 10^3), amount added 6.0 mg/l as chlorine (Cl2)): 83 × 10^2 CFU/ml; Coliform organism count (coliform organisms [1]; RUN 1, sewage 120 m^3/h (incoming 97 × 10^3), amount added 12.0 mg/l as chlorine (Cl2)): less than 3,000 CFU/ml; Coliform organism count (coliform organisms [1]; RUN 2, sewage 250 m^3/h (incoming 68 × 10^3), amount added 5.0 mg/l as chlorine (Cl2)): less than 3,000 CFU/ml; Coliform organism count (coliform organisms [1]; RUN 2, sewage 250 m^3/h (incoming 68 × 10^3), amount added 5.0 mg/l as chlorine (Cl2), listed as A): 18 × 10^2 CFU/ml; Coliform organism count (coliform organisms [1]; RUN 2, sewage 250 m^3/h (incoming 68 × 10^3), amount added 10.0 mg/l as chlorine (Cl2)): 20 or less CFU/ml; Coliform organism count (coliform organisms [1]; RUN 3, sewage 530 m^3/h (incoming 39 × 10^3), amount added 3.0 mg/l as chlorine (Cl2)): 28 × 10^2 CFU/ml; duration of contact with combined sewer overflow for appropriate disinfection (coliform organisms [1]; RUN 3, sewage 530 m^3/hour, amount added 3 to 4.5 mg/l): about 50 seconds; Coliform organism count (coliform organisms [2]; disinfectant added 0.5 mg/L as Cl): 10800 CFU/mL; Coliform organism count (coliform organisms [2]; disinfectant added 1.5 mg/L as Cl): 70 CFU/mL; Coliform organism count (coliform organisms [2]; [4]): Not detected; concentration exhibiting germicidal effect relative to the concentration of sodium hypochlorite (coliform organisms [2]; treated sewage, Example 1): a half or less; reaction time to show sufficient effect (coliform organisms [2]; treated sewage, Example 1): 1 min; Coliform organism count (coliform organisms [3]; disinfectant added 2.0 mg/L as C1): 52000 CFU/mL; Coliform organism count (coliform organisms [3]; disinfectant added 3.0 mg/L as C1): 1200 CFU/mL; Coliform organism count (coliform organisms [3]; disinfectant added 3.5 mg/L as C1): Not detected; concentration exhibiting germicidal effect relative to the concentration of sodium hypochlorite (coliform organisms [3]; marine product processing drainage, Example 2): ⅓; LC50 (aquatic organisms): 0.4 µg/mL (≈ 1.66 µM)
